Measured values reported in patent US12227539B2, “Mogroside compounds and uses thereof” (Firmenich SA, priority 2019, dated 2025).

Columns and labels:
[1] = Tasting of a sample of the purified compound (taste perceived, sweetness relative to sucrose); conditions: for sweetness relative to sucrose: tasted at 500 ppm in a water base, approximate
Text: The sweetness intensity perceived was weaker than the sweetness intensity perceived with mogroside V. However, the perception of licorice and lingering profile of isomogroside IVe was weaker than that of mogroside V (see table on following page).

[2] = Sensory profile scores (Sweet, Licorice, Lingering) compared with mogroside V
[3] = tasted at a concentration of 250 ppm
[4] = tasted at a concentration of 500 ppm in a water base

Which taste perceived [1, 3] does the source give for `C[C@H](CC[C@@H](O[C@@H]1O[C@H](CO[C@@H]2O[C@H](CO)[C@@H](O)[C@H](O)[C@H]2O)[C@@H](O)[C@H](O)[C@H]1O[C@@H]1O[C@H](CO)[C@@H](O)[C@H](O)[C@H]1O)C(C)(C)O)[C@H]1CC[C@@]2(C)[C@@H]3CC=C4[C@@H](CC[C@H](O[C@@H]5O[C@H](CO[C@@H]6O[C@H](CO)[C@@H](O)[C@H](O)[C@H]6O)[C@@H](O)[C@H](O)[C@H]5O[C@@H]5O[C@H](CO)[C@@H](O)[C@H](O)[C@H]5O)C4(C)C)[C@]3(C)[C@H](O)C[C@]12C` (stereo in doubt) [Compound 14a, (1S,4R,9beta,11beta,24R)-1-{[beta-D-glucopyranosyl-(1→2)-[beta-D-glucopyranosyl-(1→6)]-beta-D-glucopyranosyl]oxy}-11,25-dihydroxy-9,10,14-trimethyl-4,9-cyclo-9,10-secocholest-5-en-24-yl beta-D-glucopyranosyl-(1→2)-[beta-D-glucopyranosyl-(1→6)]-beta-D-glucopyranoside] here?
Its taste perceived is “No taste”.

For `C[C@H](C(O)C[C@@H](O[C@@H]1O[C@H](CO[C@@H]2O[C@H](CO)[C@@H](O)[C@H](O)[C@H]2O)[C@@H](O)[C@H](O)[C@H]1O)C(C)(C)O)[C@H]1CC[C@@]2(C)[C@@H]3CC=C4[C@@H](CC[C@H](O[C@@H]5O[C@H](CO[C@@H]6O[C@H](CO)[C@@H](O)[C@H](O)[C@H]6O)[C@@H](O)[C@H](O)[C@H]5O)C4(C)C)[C@]3(C)[C@H](O)C[C@]12C` (stereo partly drawn) [Compound 1a, (1S,4R,9beta,11alpha,24R)-1-{[6-O-(beta-D-glucopyranosyl)-beta-D-glucopyranosyl]oxy}-11,22,25-trihydroxy-9,10,14-trimethyl-4,9-cyclo-9,10-secocholest-5-en-24-yl 6-O-beta-D-glucopyranosyl-beta-D-glucopyranoside], which taste perceived [1, 3] is on record?
Its taste perceived is “No taste”.

For `C[C@H](C(O)C[C@@H](O[C@@H]1O[C@H](CO[C@@H]2O[C@H](CO)[C@@H](O)[C@H](O)[C@H]2O)[C@@H](O)[C@H](O)[C@H]1O)C(C)(C)O)[C@H]1CC[C@@]2(C)[C@@H]3CC=C4[C@@H](CC[C@H](O[C@@H]5O[C@H](CO)[C@@H](O)[C@H](O)[C@H]5O)C4(C)C)[C@]3(C)[C@H](O)C[C@]12C` (stereo partly drawn) [Compound 2a, (1S,4R,9beta,11alpha,24R)-1-(beta-D-glucopyranosyloxy)-11,22,25-trihydroxy-9,10,14-trimethyl-4,9-cyclo-9,10-secocholest-5-en-24-yl 6-O-beta-D-glucopyranosyl-beta-D-glucopyranoside], which “sweetness relative to sucrose” value [1] is on record?
The value was 20-50 times sweeter than sucrose.

What about the taste perceived [1, 4] of the same molecule?
Its taste perceived is “weak sweet taste”.

With `C[C@H](C(O)C[C@@H](O[C@@H]1O[C@H](CO[C@@H]2O[C@H](CO)[C@@H](O)[C@H](O)[C@H]2O)[C@@H](O)[C@H](O)[C@H]1O)C(C)(C)O)[C@H]1CC[C@@]2(C)[C@@H]3CC=C4[C@@H](CC[C@H](O[C@@H]5O[C@H](CO)[C@@H](O)[C@H](O)[C@H]5O)C4(C)C)[C@]3(C)[C@@H](O)C[C@]12C` (stereo partly drawn) [Compound 2b, (1S,4R,9beta,11beta,24R)-1-(beta-D-glucopyranosyloxy)-11,22,25-trihydroxy-9,10,14-trimethyl-4,9-cyclo-9,10-secocholest-5-en-24-yl 6-O-beta-D-glucopyranosyl-beta-D-glucopyranoside] as the molecule, how does the taste perceived [1, 3] read?
Its taste perceived is “No taste”.

With `C[C@H](CC[C@@H](O[C@@H]1O[C@H](CO[C@@H]2O[C@H](CO)[C@@H](O)[C@H](O)[C@H]2O)[C@@H](O)[C@H](O)[C@H]1O[C@@H]1O[C@H](CO)[C@@H](O)[C@H](O)[C@H]1O)C(C)(C)O)[C@H]1CC[C@@]2(C)[C@@H]3C(O)C=C4[C@@H](CC[C@H](O[C@@H]5O[C@H](CO[C@@H]6O[C@H](CO)[C@@H](O)[C@H](O)[C@H]6O)[C@@H](O)[C@H](O)[C@H]5O)C4(C)C)[C@]3(C)[C@H](O)C[C@]12C` (stereo partly drawn) [Compound 4a, (1S,4R,9beta,11alpha,24R)-1-{[6-O-(beta-D-glucopyranosyl)-beta-D-glucopyranosyl]oxy}-7,11,25-trihydroxy-9,10,14-trimethyl-4,9-cyclo-9,10-secocholest-5-en-24-yl beta-D-glucopyranosyl-(1→2)-[beta-D-glucopyranosyl-(1→6)]-beta-D-glucopyranoside] as the molecule, how does the “sweetness relative to sucrose” value [1] read?
Its value is 30-60 times sweeter than sucrose.

What about the taste perceived [1, 4] of the same molecule?
The taste perceived was “weak sweet taste”.

Which “sweetness relative to sucrose” value [1] does the source give for `C[C@H](CC[C@@H](O[C@@H]1O[C@H](CO[C@@H]2O[C@H](CO)[C@@H](O)[C@H](O)[C@H]2O)[C@@H](O)[C@H](O)[C@H]1O[C@@H]1O[C@H](CO)[C@@H](O)[C@H](O)[C@H]1O)C(C)(C)O)[C@H]1CC[C@@]2(C)[C@@H]3CC=C4[C@@H](CC[C@H](O[C@@H]5O[C@H](CO[C@@H]6O[C@H](CO)[C@@H](O)[C@H](O)[C@H]6O)[C@@H](O)[C@H](O)[C@H]5O)C4(C)C)[C@]3(C=O)C(=O)C[C@]12C` [Compound 6a, (1S,4R,9beta,24R)-9-formyl-1-{[6-O-(beta-D-glucopyranosyl)-beta-D-glucopyranosyl]oxy}-25-hydroxy-10,14-dimethyl-11-oxo-4,9-cyclo-9,10-secocholest-5-en-24-yl beta-D-glucopyranosyl-(1→2)-[beta-D-glucopyranosyl-(1→6)]-beta-D-glucopyranoside] here?
The value was 100-200 times sweeter than sucrose.

And the taste perceived [1, 4]?
Its taste perceived is “strong sweet taste”.

Which taste perceived [1, 3] does the source give for `CC(C)(O)[C@@H](CC[C@](C)(O)[C@H]1CC[C@@]2(C)[C@@H]3CC=C4[C@@H](CC[C@H](O[C@@H]5O[C@H](CO[C@@H]6O[C@H](CO)[C@@H](O)[C@H](O)[C@H]6O)[C@@H](O)[C@H](O)[C@H]5O)C4(C)C)[C@]3(C)[C@H](O)C[C@]12C)O[C@@H]1O[C@H](CO[C@@H]2O[C@H](CO)[C@@H](O)[C@H](O)[C@H]2O)[C@@H](O)[C@H](O)[C@H]1O[C@@H]1O[C@H](CO)[C@@H](O)[C@H](O)[C@H]1O` [Compound 7a, (1S,4R,9beta,11alpha,24R)-1-{[6-O-(beta-D-glucopyranosyl)-beta-D-glucopyranosyl]oxy}-11,20,25-trihydroxy-9,10,14-trimethyl-4,9-cyclo-9,10-secocholest-5-en-24-yl beta-D-glucopyranosyl-(1→2)-[beta-D-glucopyranosyl-(1→6)]-beta-D-glucopyranoside] here?
Its taste perceived is “No taste”.

Which taste perceived [1, 3] does the source give for `CC(C)(O)[C@@H](CC[C@](C)(O)[C@H]1CC[C@@]2(C)[C@@H]3CC=C4[C@@H](CC[C@H](O[C@@H]5O[C@H](CO)[C@@H](O)[C@H](O)[C@H]5O)C4(C)C)[C@]3(C)C(=O)C[C@]12C)O[C@@H]1O[C@H](CO[C@@H]2O[C@H](CO)[C@@H](O)[C@H](O)[C@H]2O)[C@@H](O)[C@H](O)[C@H]1O` [Compound 8a, (1S,4R,9beta,24R)-1-(beta-D-glucopyranosyloxy)-20,25-dihydroxy-9,10,14-trimethyl-11-oxo-4,9-cyclo-9,10-secocholest-5-en-24-yl 6-O-beta-D-glucopyranosyl-beta-D-glucopyranoside] here?
The taste perceived was “No taste”.

For `CC(C)(O)[C@@H](CC[C@](C)(O)[C@H]1CC[C@@]2(C)[C@@H]3CC=C4[C@@H](CC[C@H](O[C@@H]5O[C@H](CO[C@@H]6O[C@H](CO)[C@@H](O)[C@H](O)[C@H]6O)[C@@H](O)[C@H](O)[C@H]5O[C@@H]5O[C@H](CO)[C@@H](O)[C@H](O)[C@H]5O)C4(C)C)[C@]3(C)C(=O)C[C@]12C)O[C@@H]1O[C@H](CO[C@@H]2O[C@H](CO)[C@@H](O)[C@H](O)[C@H]2O)[C@@H](O)[C@H](O)[C@H]1O` [Compound 9a, (1S,4R,9beta,24R)-24-{[6-O-(beta-D-glucopyranosyl)-beta-D-glucopyranosyl]oxy}-20,25-dihydroxy-9,10,14-trimethyl-11-oxo-4,9-cyclo-9,10-secocholest-5-en-1-yl beta-D-glucopyranosyl-(1→2)-[beta-D-glucopyranosyl-(1→6)]-beta-D-glucopyranoside], which taste perceived [1, 3] is on record?
The taste perceived was “No taste”.

Which results are given for `C[C@H](CC[C@@H](O[C@@H]1O[C@H](CO[C@@H]2O[C@H](CO)[C@@H](O)[C@H](O)[C@H]2O)[C@@H](O)[C@H](O)[C@H]1O[C@@H]1O[C@H](CO)[C@@H](O)[C@H](O)[C@H]1O)C(C)(C)O)[C@H]1CC[C@@]2(C)[C@@H]3CC=C4[C@@H](CC[C@H](O[C@@H]5O[C@H](CO[C@@H]6O[C@H](CO)[C@@H](O)[C@H](O)[C@H]6O)[C@@H](O)[C@H](O)[C@H]5O)C4(C)C)[C@]3(C)[C@H](O)C[C@]12C` [Mogroside V, reference compound]?
Licorice ([2]; Dosage 250 ppm): 3.8; Lingering ([2]; Dosage 250 ppm): 4.9; Sweet ([2]; Dosage 250 ppm): 6.0; Licorice ([2]; Dosage 500 ppm): 4.2; Lingering ([2]; Dosage 500 ppm): 5.2; Sweet ([2]; Dosage 500 ppm): 7.2

For “(1S,4R,9beta,11alpha,24R)-24-{[6-O-(beta-D-glucopyranosyl)-beta-D-glucopyranosyl]oxy}-11,22,25-trihydroxy-9,10,14-trimethyl-4,9-cyclo-9,10-secocholest-5-en-1-yl 4-O-beta-D-glucopyranosyl-beta-D-glucopyranoside [Compound 3a]”, which taste perceived [1, 3] is on record?
Its taste perceived is “No taste”.

With “(1S,4R,9beta,24R)-1-{[6-O-(beta-D-glucopyranosyl)-beta-D-glucopyranosyl]oxy}-25-hydroxy-9-(hydroxymethyl)-10,14-dimethyl-11-oxo-4,9-cyclo-9,10-secocholest-5-en-24-yl beta-D-glucopyranosyl-(1→2)-[beta-D-glucopyranosyl-(1→6)]-beta-D-glucopyranoside [Compound 5a]” as the molecule, how does the taste perceived [1, 3] read?
Its taste perceived is “No taste”.

For “[(1S,4R,9beta,10R,24R)-24-{[beta-D-glucopyranosyl-(1→6)-beta-D-glucopyranosyl-(1→6)-beta-D-glucopyranosyl]oxy}-1,25-dihydroxy-9,14-dimethyl-11-oxo-4,9-cyclo-9,10-secocholest-5-en-10-yl]methyl beta-D-glucopyranosyl-(1→6)-[beta-D-glucopyranosyl-(1→4)-beta-D-glucopyranosyl-(1→2)]-beta-D-glucopyranoside [Compound 10a]”, which taste perceived [1, 3] is on record?
The taste perceived was “No taste”.

With isomogroside IVe as the molecule, how does the “perception of licorice and lingering profile compared with mogroside V” value ([2]; 250 ppm in a water base) read?
Its value is “weaker”.
